The term EC50 denotes the midpoint of the concentration-response curve. Lower therefore signals greater potency.

Human LPA1, sequence (Q92633 whole entry): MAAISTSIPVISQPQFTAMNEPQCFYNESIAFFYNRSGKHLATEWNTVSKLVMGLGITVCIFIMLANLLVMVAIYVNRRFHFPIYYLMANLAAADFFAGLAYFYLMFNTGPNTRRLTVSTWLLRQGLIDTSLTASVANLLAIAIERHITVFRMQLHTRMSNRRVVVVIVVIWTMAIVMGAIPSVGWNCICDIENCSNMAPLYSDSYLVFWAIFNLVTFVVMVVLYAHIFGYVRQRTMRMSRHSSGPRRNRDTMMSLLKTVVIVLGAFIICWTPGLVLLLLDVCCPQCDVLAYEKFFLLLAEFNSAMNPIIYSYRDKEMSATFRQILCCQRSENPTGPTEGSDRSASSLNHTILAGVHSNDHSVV

This test deals with Human LPA1 (Homo sapiens, UniProt Q92633). Nature of the test: Beta-Arrestin based assay for human LPA1R antagonists (PathHunter). More on the design: host or cells: CHO. The conditions noted are these: CHO cells stably expressing ProLink tagged human LPA1R; agonist LPA 0.5 micromolar. The test is classed as cell-based. As for the experimental part:
Beta-Arrestin Based Assays for Human LPA1R Antagonists and Agonists
A CHO cell line stably expressing the ProLink™ tagged human LPA1R was obtained from DiscoverX Inc, Fremont, Calif. In this system, β-Arrestin was fused to an N-terminal deletion mutant of β-galactosidase (termed the enzyme acceptor or EA), the human LPA1R was fused to a smaller (42 amino acids) weakly complementing fragment termed ProLink™. […] Cell handling and assays were performed according to protocols specified in the PathHunter® assays kits (DiscoverX, Fremont, Calif.). Assays were performed in quadruplicate in white 384 well plates. End point luminescence data were plotted and fit to a 4 parameter logistic function to obtain IC50 values. For antagonist assays, an […] concentration of agonist (LPA) equal to 0.5 micromolar was used.
`Cc1nsc(-c2ccc(-c3ccc(C4(C(=O)O)CC4)cc3)c(Cl)c2)c1NC(=O)O[C@H](C)c1ccccc1` [Compound 188] registered an EC50 of less than 50 nM. Take `Cc1nsc(-c2ccc(-c3ccc(C4(C(=O)O)CC4)cc3)cc2C#N)c1NC(=O)O[C@H](C)c1ccccc1` [Compound 189]: the EC50 was more than 500 nM. As for `Cc1nsc(-c2ccc(-c3ccc(CC(=O)O)cc3Cl)cc2)c1NC(=O)O[C@H](C)c1ccccc1Cl` [Compound 190], the EC50 fell in the range of 50 to 500 nM.

As for `Cc1nsc(-c2ccc(-c3ccc(C4(C(=O)O)CC4)c(Cl)c3)cc2)c1NC(=O)O[C@H](C)c1ccccc1Cl` [Compound 191], the concentration for a half-maximal effect (EC50) is less than 50 nM.

Regarding `Cc1nsc(-c2ccc(-c3ccc(CC(=O)O)c(Cl)c3)cc2)c1NC(=O)O[C@H](C)c1ccccc1Cl` [Compound 192], the EC50 was in the range of 50 to 500 nM. Under `Cc1cc(CC(=O)O)ccc1-c1ccc(-c2snc(C)c2NC(=O)O[C@H](C)c2ccccc2Cl)cc1` [Compound 193] stands 50 to 500 nM; under `Cc1nsc(-c2ccc(-c3ccc(C4(C(=O)O)CC4)cc3)cc2)c1NC(=O)O[C@H](C)c1cccc(F)c1` [Compound 194], less than 50 nM. `Cc1nsc(-c2ccc(-c3ccc(CC(=O)O)cc3F)cc2)c1NC(=O)O[C@H](C)c1ccccc1Cl` [Compound 195] registered a half-maximal effective concentration (EC50) of 50 to 500 nM. Then `Cc1nsc(-c2ccc(-c3ccc(CC(=O)O)c(F)c3)cc2)c1NC(=O)O[C@H](C)c1ccccc1Cl` [Compound 196], with 50 to 500 nM. Under `Cc1nsc(-c2ccc(-c3ccc(C4(C(=O)O)CC4)c(F)c3)cc2)c1NC(=O)O[C@H](C)c1ccccc1Cl` [Compound 197] stands less than 50 nM; under `Cc1nsc(-c2ccc(-c3ccc(C4(C(=O)O)CC4)cc3)cc2)c1NC(=O)O[C@H](C)c1cccc(Cl)c1` [Compound 198], less than 50 nM. Then `C[C@@H](OC(=O)Nc1c(-c2cc(F)c(-c3ccc(C4(C(=O)O)CC4)cc3)cc2F)cnn1C)c1ccccc1Cl` [Compound 199], with less than 50 nM. Take `C[C@@H](OC(=O)Nc1c(-c2cc(Cl)c(-c3ccc(C4(C(=O)O)CC4)cc3)cc2F)cnn1C)c1ccccc1Cl` [Compound 202]: the EC50 is less than 50 nM. As to `C[C@@H](OC(=O)Nc1c(-c2ccc(-c3ccc(C4(C(=O)O)CC4)cc3)c(F)c2)cnn1C)c1ccccc1` [Compound 203], the EC50 was less than 50 nM. Then `C[C@@H](OC(=O)Nc1c(-c2ccc(-c3ccc(C4(C(=O)O)CC4)cc3)cc2F)cnn1C)c1ccccc1` [Compound 204], with less than 50 nM; and `C[C@@H](OC(=O)Nc1c(-c2c(F)cc(-c3ccc(C4(C(=O)O)CC4)cc3)cc2F)cnn1C)c1ccccc1` [Compound 205], with less than 50 nM; and `C[C@@H](OC(=O)Nc1oncc1-c1ccc(-c2ccc(C3(C(=O)O)CC3)cc2)cc1)c1ccccc1` [Compound 206], with less than 50 nM. Under `C[C@@H](OC(=O)Nc1sc2ccccc2c1-c1ccc(-c2ccc(C3(C(=O)O)CC3)cc2)cc1)c1ccccc1` [Compound 207] stands more than 500 nM; under `C[C@@H](OC(=O)Nc1oc2ccccc2c1-c1ccc(-c2ccc(C3(C(=O)O)CC3)cc2)cc1)c1ccccc1` [Compound 208], more than 500 nM; under `C[C@@H](OC(=O)Nc1c(-c2ccc(-c3ccc(C4(C(=O)O)CC4)cc3)cc2)sc2ccccc12)c1ccccc1Cl` [Compound 209], 50 to 500 nM. Under `C[C@@H](OC(=O)Nc1cnsc1-c1ccc(-c2ccc(C3(C(=O)O)CC3)cc2)cc1)c1ccccc1Cl` [Compound 210] stands 50 to 500 nM; under `C[C@@H](OC(=O)Nc1nsnc1-c1ccc(-c2ccc(C3(C(=O)O)CC3)cc2)cc1)c1ccccc1` [Compound 211], 50 to 500 nM. As for `C[C@@H](OC(=O)Nc1c(-c2ccc(-c3ccc(C4(C(=O)O)CC4)cc3)cc2)oc2nc(C(F)(F)F)ccc12)c1ccccc1` [Compound 212], the EC50 is more than 500 nM. Under `Cc1ccc2c(NC(=O)O[C@H](C)c3ccccc3)c(-c3ccc(-c4ccc(C5(C(=O)O)CC5)cc4)cc3)sc2n1` [Compound 214] stands more than 500 nM; under `Cc1ccc2c(NC(=O)O[C@H](C)c3ccccc3)c(-c3ccc(-c4ccc(C5(C(=O)O)CC5)cc4)cc3)oc2n1` [Compound 215], more than 500 nM; under `Cc1nsc(-c2ccc(-c3ccc(C4(C(=O)O)CC4)cc3)cc2)c1NC(=O)O[C@H](C)C1=C(Cl)CCCC1` [Compound 218], less than 50 nM. Then `Cc1nsc(-c2ccc(-c3ccc(C4(C(=O)O)CC4)cc3)cc2)c1NC(=O)O[C@@H](C)C1=C(Cl)CCCC1` [Compound 219], with 50 to 500 nM. Under `CC(C)n1ncc(-c2ccc(-c3ccc(C4(C(=O)O)CC4)cc3)cc2)c1NC(=O)O[C@H](C)c1ccccc1` [Compound 220] stands less than 50 nM. `CCn1ncc(-c2ccc(-c3ccc(C4(C(=O)O)CC4)cc3)cc2)c1NC(=O)O[C@H](C)c1ccccc1` [Compound 221] displayed an EC50 of less than 50 nM. `CC(OC(=O)Nc1n[nH]nc1-c1ccc(-c2ccc(C3(C(=O)O)CC3)cc2)cc1)c1ccccc1` (centres unmarked) [Compound 223] returned a concentration giving a half-maximal response (EC50) of more than 500 nM.

In the case of `C[C@@H](OC(=O)Nc1nn(C)nc1-c1ccc(-c2ccc(C3(C(=O)O)CC3)cc2)cc1)c1ccccc1` [Compound 225], the EC50 is more than 500 nM. Then `C[C@@H](OC(=O)Nc1nnn(C)c1-c1ccc(-c2ccc(C3(C(=O)O)CC3)cc2)cc1)c1ccccc1` [Compound 226], with more than 500 nM; and `Cc1nsc(-c2ccc(-c3ccc(C4(C(=O)O)CC4)cc3)cc2)c1NC(=O)O[C@@H](C)c1ccccc1` [Compound 236], with more than 500 nM; and `Cc1nsc(-c2ccc(-c3ccc(C4(C(=O)OC5OC(C(=O)O)C(O)C(O)C5O)CC4)cc3)cc2)c1NC(=O)O[C@H](C)c1ccccc1` (some centres unmarked) [Compound 238], with more than 500 nM. Under `Cc1nsc(-c2ccc(-c3ccc(C4(C(=O)O)CC4)cc3)c3c2CCC3)c1NC(=O)O[C@H](C)c1ccccc1` [Compound 239] stands more than 500 nM; under `Cc1nsc(-c2ccc(-c3ccc(C4(C(=O)O)CCOCC4)cc3)cc2)c1NC(=O)O[C@H](C)c1ccccc1` [Compound 243], 50 to 500 nM.

Take `Cc1nsc(-c2ccc(-c3ccc(C4(C(=O)O)CC4)cc3)cc2)c1NC(=O)OC1(c2ccccc2)CC1` [Compound 244]: the EC50 was more than 500 nM. In the case of `Cc1nsc(-c2ccc3c(c2)CCc2cc(C4(C(=O)O)CC4)ccc2-3)c1NC(=O)O[C@H](C)c1ccccc1` [Compound 245], the concentration for a half-maximal effect (EC50) was less than 50 nM. Under `Cc1nsc(-c2ccc3c(c2)CCc2cc(C4(C(=O)O)CC4)ccc2-3)c1NC(=O)OCc1ccccc1` [Compound 246] stands 50 to 500 nM. Take `Cc1noc(-c2ccc3c(c2)CCc2cc(C4(C(=O)O)CC4)ccc2-3)c1NC(=O)O[C@H](C)c1ccccc1` [Compound 247]: the EC50 is less than 50 nM. Under `Cc1noc(-c2ccc3c(c2)CCc2cc(C4(C(=O)O)CC4)ccc2-3)c1NC(=O)O[C@H](C)c1ccccc1Cl` [Compound 248] stands less than 50 nM; under `Cc1nsc(-c2ccc3c(c2)CCc2cc(C4(C(=O)O)CC4)ccc2-3)c1NC(=O)O[C@H](C)c1ccccc1Cl` [Compound 249], less than 50 nM. Then `Cc1noc(C#Cc2ccc(C3(C(=O)O)CC3)cc2)c1NC(=O)O[C@H](C)c1ccccc1` [Compound 250], with 50 to 500 nM; and `Cc1nsc(-c2ccc(-c3ccc(C4(C(=O)O)CC4)cc3)nc2)c1NC(=O)O[C@H](C)c1ccccc1Cl` [Compound 251], with 50 to 500 nM. For the compound `Cc1nsc(-c2ccc(-c3ccc(C4(C(=O)O)CC4)cn3)cc2)c1NC(=O)O[C@H](C)c1ccccc1Cl` [Compound 252], the half-maximal effective concentration (EC50) was in the range of 50 to 500 nM.

Turning to `Cc1nsc(-c2ccc(-c3ccc(C4(C(=O)O)CC4)cc3)cc2)c1NC(=O)OC(C)c1ccccc1` (centres unmarked) [Compound 253], the EC50 was less than 50 nM. Under `Cc1noc(C#Cc2cc3sc(C(=O)O)cc3s2)c1NC(=O)O[C@H](C)c1ccccc1` [Compound 254] stands 50 to 500 nM; under `Cc1noc(C#Cc2cc3sc(C4(C(=O)O)CC4)cc3s2)c1NC(=O)O[C@H](C)c1ccccc1` [Compound 255], less than 50 nM.

For the compound `O=C(O)Cc1ccc(C2CCN(C(=O)CCNC(=O)OCc3ccccc3)CC2)cc1` [Compound 256], the EC50 was more than 500 nM. For the compound `O=C(O)Cc1ccc(C2CCN(C(=O)[C@@H](Cc3ccccc3)NC(=O)OCc3ccccc3)CC2)cc1` [Compound 257], the EC50 was more than 500 nM. Turning to `CN(CC(=O)N1CCC(c2ccc(CC(=O)O)cc2)CC1)C(=O)OCc1ccccc1` [Compound 258], the EC50 is more than 500 nM.

Consider `O=C(O)Cc1ccc(N2CCN(C(=O)CCNC(=O)COc3ccccc3)CC2)cc1` [Compound 265], for which the EC50 was more than 500 nM. Under `O=C(O)Cc1ccc(N2CCN(C(=O)[C@@H](Cc3ccccc3)NC(=O)OCc3ccccc3)CC2)cc1` [Compound 266] stands more than 500 nM; under `C[C@H](NC(=O)OCc1ccccc1)C(=O)N1CCN(c2ccc(CC(=O)O)cc2)CC1` [Compound 267], more than 500 nM; under `O=C(O)Cc1ccc(N2CCN(C(=O)[C@@H](NC(=O)OCc3ccccc3)c3ccccc3)CC2)cc1` [Compound 268], more than 500 nM. `O=C(O)Cc1ccc(N2CCN(C(=O)CNC(=O)OCc3ccccc3)CC2)cc1` [Compound 269] had an EC50 of more than 500 nM. Under `O=C(O)Cc1ccc(N2CCN(C(=O)CCCNC(=O)OCc3ccccc3)CC2)cc1` [Compound 270] stands more than 500 nM. The compound `CN(CC(=O)N1CCN(c2ccc(CC(=O)O)cc2)CC1)C(=O)OCc1ccccc1` [Compound 271] returned an EC50 of more than 500 nM. Compound `O=C(O)Cc1ccc(N2CCN(C(=O)[C@H](NC(=O)OCc3ccccc3)c3ccccc3)CC2)cc1` [Compound 272] gave an EC50 of more than 500 nM.

(Values after patent US8975235B2, “Lysophosphatidic acid receptor antagonists” (InterMune, Inc., priority 2011, dated 2015).)
